Data set [1] can be described thus: Pharmacokinetic study in rats after oral administration of cortex periplocae extract (plasma LC-MS/MS). It is filed as in vivo, rat. Conditions: oral cortex periplocae extract 18.9 g/kg; for AUC: 0-48 h, read-out: AUC(0-tn); for MRT: read-out: MRT(0-tn). As for the experimental part:
The pharmacokinetic study was conducted in accordance with the Guidelines for the Care and Use of Laboratory Animals and approved by the Animal Ethics Committee of Tianjin University of Traditional Chinese Medicine. […] Appropriate amount of cortex periplocae extract was suspended in 0.5% carboxymethyl cellulose sodium salt aqueous solution (CMC-Na) and the volume of oral administration was 1 mL/100g. […] The rats were anesthetized with ethyl ether before each withdrawal. […] For this repeat bleeds at short intervals, fluid replacement (appropriate volume of physiological saline) was required. The blood samples were immediately centrifuged 10 min at 7000 rpm. The obtained plasma was transferred into another centrifuge tube and stored at -80°C for analysis.
For the maximum drug concentration in plasma (Cmax) and the time to reach maximum drug concentration (Tmax), the values could be directly obtained. The other key parameters such as the area under the plasma concentration–time curve (AUC), elimination half-life (t1/2), and mean residence time (MRT) were calculated with DAS (Drug and Statistics 1.0, Medical College of Wannan, China) using non-compartmental model.

Data set [2] is described as follows: Stability of analytes in rat plasma QC samples (autosampler, room temperature, freeze/thaw, -80°C). It is filed as in vitro ADME. Conditions: for Freeze thaw cycles stability, Accuracy: three freeze (-80°C)/thaw cycles. As to the method: (§1) The QC samples (n = 6) at three concentrations (low, medium, and high) were also used to assess the stabilities of all analytes. The QC samples under autosampler condition for 24 h were determined to evaluate the autosampler 24 h stability. For the freeze/thaw cycle stability, the QC samples stored at -80°C were subjected to three freeze to thaw (at room temperature) cycles. QC samples stored at room temperature for 24 h and -80°C for 1 month were used to evaluate the short-term stability and the long-term stability. The mixed analytes solution (100 ng/mL), which was obtained by diluting the stock solution stored for two weeks at 4°C, was used to evaluate the stability of stock solution. The stability of analytes working solution was also assessed by storing solutions 2 weeks at 4°C. The stabilities of stock and working solutions of ISs were determined by the same procedure as that for the analytes.

Data set [3] in a line: Stability of stock and working solutions stored 2 weeks at 4°C. It is filed as physicochemical. As to the method: as §1, with “The QC samples under autosampler condition for 24 h were determined to evaluate the autosampler 24 h stability.” left out, “QC samples stored at room temperature for 24 h and -80°C for 1 month were used to evaluate the short-term stability and the long-term stability.” left out

[4] abbreviates: n = 6, high level (1200 ng/mL isovanillin, periplocin; 240 ng/mL others).
[5] abbreviates: n = 6, low level (7.2 ng/mL isovanillin, periplocin; 1.44 ng/mL others).
Where [6] appears, read: n = 6, medium level (120 ng/mL isovanillin, periplocin; 24 ng/mL others).
Where [7] appears, read: 2 weeks at 4°C, high level (1200 ng/mL isovanillin, periplocin; 240 ng/mL scopoletin, periplogenin, periplocymarin).
[8] abbreviates: 2 weeks at 4°C, low level (7.2 ng/mL isovanillin, periplocin; 1.44 ng/mL scopoletin, periplogenin, periplocymarin).
The mark [9] stands for this setting: 2 weeks at 4°C, medium level (120 ng/mL isovanillin, periplocin; 24 ng/mL scopoletin, periplogenin, periplocymarin).
Setting [10] is: male Sprague-Dawley rats, plasma, n = 6, mean ± SD.
Where [11] appears, read: male, Sprague-Dawley, rat, in vivo, po, 18.9 g/kg, male Sprague-Dawley rats, plasma, n = 6, mean ± SD.
[12] abbreviates: rat, in vivo, male Sprague-Dawley rats, plasma, n = 6, mean ± SD.
[13] abbreviates: rat, in vivo, male Sprague-Dawley rats, plasma, n = 6, mean ± SD, read-out: Cmax.
The mark [14] stands for this setting: rat, male Sprague-Dawley rats, plasma, n = 6, mean ± SD.

Results on seven compounds are retold here after article PMC6393897, “An LC-MS/MS Method for Simultaneous Determination of the Toxic and Active Components of Cortex Periplocae in Rat Plasma and Application to a Pharmacokinetic Study” (International Journal of Analytical Chemistry, 2019).

Where two headings read alike, the source gives them in different places.

With `COc1ccc(C=O)cc1O` [isovanillin], the “Detection in rat plasma after oral administration” value in data set [1] (LLOQ 2.4 ng/mL) is on record as “not detected”. For the same compound, the “-80°C for 1 month stability, Accuracy” value was 99.4% in data set [2] (setting [4]), 109% in data set [2] (setting [5]) and 100% in data set [2] (setting [6]). Also, the “Autosampler for 24 hours stability, Accuracy” value (“Autosampler” below) in data set [2] (setting [4]) was 114%; in data set [2] (setting [5]), 100%; in data set [2] (setting [6]), 112%. In addition, the “Room temperature for 24 h stability, Accuracy” value (shortened to “Room temperature”) turned out to be 103% in data set [2] (setting [4]), 107% in data set [2] (setting [5]) and 106% in data set [2] (setting [6]). For the same compound, the “Freeze thaw cycles stability, Accuracy” value in data set [2] (setting [4]) stood at 107%; in data set [2] (setting [5]), 101%; in data set [2] (setting [6]) it was 98.6%. In addition, the “Working solution stability, Accuracy” value in data set [3] (setting [7]) stood at 85.0%; in data set [3] (setting [8]), 104%; in data set [3] (setting [9]) it was 96.1%.

What is called half-life is the time needed for the level to fall by half in the phase considered. A high value points to slow loss. In general, AUC refers to the area under the concentration-time curve, a measure of exposure. As a reminder, the AUC(0-inf) is the area under the concentration-time curve extrapolated to infinity. A lower AUC(0-inf) goes with low exposure. As usually defined, the Tmax is the time at which the peak concentration occurs. For orientation: Cmax means the peak of the concentration-time curve. Usually MRT stands for the average time that molecules of a dose stay in the body. In data set [1] (setting [10]), `COC1CC(OC2CCC3(C)C4CCC5(C)C(C6=CC(=O)OC6)CCC5(O)C4CCC3(O)C2)OC(C)C1OC1OC(CO)C(O)C(O)C1O` (stereo not shown) [periplocin] displayed a t1/2 of 1.08 ± 0.98 h. Further, in data set [1] (setting [11]), the half-life was 1.21 ± 1.11 h. Also, in data set [1] (setting [12]), the AUC was 83 ± 58.6 ng·h/mL, the area under the curve AUC(0-inf) stood at 105 ± 70.9 ng·h/mL, the Tmax came out at 0.31 ± 0.16 h and the mean residence time MRT worked out at 1.21 ± 1.11 h. Also, the peak concentration (Cmax) in data set [1] (setting [13]) was 91.4 ± 53 ng/mL. Besides, in data set [2] (setting [4]), the “-80°C for 1 month stability, Accuracy” value stood at 92.9%; the “Autosampler” value is 113%; the “Room temperature” value is 96.4%; the “Freeze thaw cycles stability, Accuracy” value amounted to 113%. In data set [2] (setting [5]), the “-80°C for 1 month stability, Accuracy” value amounted to 115%; the “Autosampler” value was 113%; the “Room temperature” value is given as 111%; the “Freeze thaw cycles stability, Accuracy” value is reported as 93.7%. In data set [2] (setting [6]), the “-80°C for 1 month stability, Accuracy” value stood at 115%; the “Autosampler” value turned out to be 109%; the “Room temperature” value is recorded as 116%; the “Freeze thaw cycles stability, Accuracy” value is given as 114%. Besides, the “Working solution stability, Accuracy” value in data set [3] (setting [7]) worked out at 94.4%. The “Working solution stability, Accuracy” value in data set [3] (setting [8]) turned out to be 103%. In data set [3] (setting [9]), the “Working solution stability, Accuracy” value was 98.9%.

The compound `CO[C@H]1C[C@H](O[C@H]2CC[C@]3(C)[C@H]4CC[C@]5(C)[C@@H](C6=CC(=O)OC6)CC[C@]5(O)[C@@H]4CC[C@]3(O)C2)O[C@H](C)[C@H]1O` [periplocymarin] showed a half-life in data set [1] (setting [11]) of 30.2 ± 11.8 h. Further, the “Cmax ratio periplocymarin versus periplogenin” value in data set [1] (rat plasma) is 9 times. Besides, in data set [1] (setting [12]), the AUC is 1690 ± 1170 ng·h/mL, the AUC(0-inf) came out at 2260 ± 1280 ng·h/mL, the Tmax was 5.49 ± 4.34 h and the mean residence time (MRT) was 17.1 ± 2.48 h. Moreover, the maximum concentration (Cmax) in data set [1] (setting [13]) was determined as 126 ± 96.4 ng/mL. In data set [2] (setting [4]), the “-80°C for 1 month stability, Accuracy” value was 102%; the “Autosampler” value was 102%; the “Room temperature” value is 98.5%; the “Freeze thaw cycles stability, Accuracy” value stood at 103%. In data set [2] (setting [5]), the “-80°C for 1 month stability, Accuracy” value is listed as 106%; the “Autosampler” value turned out to be 101%; the “Room temperature” value stood at 107%; the “Freeze thaw cycles stability, Accuracy” value is listed as 113%. Moreover, in data set [2] (setting [6]), the “-80°C for 1 month stability, Accuracy” value was determined as 102%; the “Autosampler” value amounted to 108%; the “Room temperature” value was 102%; the “Freeze thaw cycles stability, Accuracy” value amounted to 113%. In addition, the “Working solution stability, Accuracy” value in data set [3] (setting [7]) came out at 84.2%. The “Working solution stability, Accuracy” value in data set [3] (setting [8]) is listed as 110%. Also, the “Working solution stability, Accuracy” value in data set [3] (setting [9]) was 95.1%.

Consider `C[C@]12CC[C@H](O)C[C@@]1(O)CC[C@@H]1[C@@H]2CC[C@]2(C)[C@@H](C3=CC(=O)OC3)CC[C@]12O` [periplogenin], for which the figures for the “-80°C for 1 month stability, Accuracy” value in data set [2] (setting [4]), in data set [2] (setting [5]) and in data set [2] (setting [6]) were 98.7%, 109% and 108%, respectively. Moreover, the results for the “Autosampler” value in data set [2] (setting [4]), in data set [2] (setting [5]) and in data set [2] (setting [6]) were 104%, 108% and 110%, respectively. Further, the figures for the “Room temperature” value in data set [2] (setting [4]), in data set [2] (setting [5]) and in data set [2] (setting [6]) were 101%, 92.6% and 115%, respectively. The “Freeze thaw cycles stability, Accuracy” value in data set [2] (setting [4]) is on record as 92.8%; in data set [2] (setting [5]), 116%; in data set [2] (setting [6]), 112%. The “Working solution stability, Accuracy” value in data set [3] (setting [7]) worked out at 81.5%; in data set [3] (setting [8]) it was 111%; in data set [3] (setting [9]) it was 99.4%.

For the compound `O=Cc1ccc(O)c(O)c1` [protocatechuic aldehyde, reference compound], the “Working solution stability of ISs, accuracy” value in data set [3] (IS working solutions, 2 weeks at 4°C) is 101%.

Consider `COc1cc2ccc(=O)oc2cc1O` [scopoletin], for which, in data set [1] (setting [10]), the Cmax turned out to be 177.8 ± 133.85 ng/mL. For the same compound, the Cmax in data set [1] (male, Sprague-Dawley, rat, plasma, po, 18.9 g/kg, male Sprague-Dawley rats, plasma, n = 6, mean ± SD, read-out: Cmax) is 178 ± 134 ng/mL. For the same compound, in data set [1] (setting [12]), the AUC turned out to be 103 ± 76.4 ng·h/mL. Further, in data set [1] (setting [14]), the AUC(0-inf) amounted to 206 ± 153 ng·h/mL, the Tmax stood at 0.1 ± 0.03 h, the half-life was 0.19 ± 0.08 h and the MRT came out at 11.8 ± 6.6 h. Besides, the “Room temperature” value in data set [2] (setting [4]) is 103%.

With `CC(=O)CC(c1ccccc1)c1c(O)c2ccccc2oc1=O` (stereo not shown) [warfarin, reference compound], the “Working solution stability of ISs, accuracy” value in data set [3] (2 weeks) stood at 109%.
